# Laboratory results: publication PMC12396409, “Screening and hit evaluation of a microbial metabolite library against the pathogenic Plasmodium falciparum and Toxoplasma gondii parasites” (International Journal for Parasitology: Drugs and Drug …, 2025)
# Tests used:
# [1] = system: P. falciparum 3D7 parasites; test: P. falciparum growth inhibition assay, 1-cycle (72 h treatment), SYBR DNA staining (library screen at 2 μg/mL and dose-response); format: cell-based, Plasmodium falciparum; settings: P. falciparum 3D7, 72 h, % growth; for Pf_72h_%Growth_Rep1: replicate 1; for Pf_72h_%Growth_Rep2: replicate 2
# [2] = system: P. falciparum 3D7 parasites; test: P. falciparum growth inhibition assay, 2-cycle (120 h treatment), delayed-death screen and dose-response; format: cell-based, Plasmodium falciparum; settings: P. falciparum 3D7, 120 h, % growth; for Pf_120h_%Growth_Rep1: replicate 1; for Pf_120h_%Growth_Rep2: replicate 2
# [3] = system: T. gondii RH strain (RH-Tub-eYFP) tachyzoites; test: microbe, parasite or virus in culture; format: cell-based, Toxoplasma gondii; settings: 72 h, % growth; for Tg_72h_%Growth_Rep1: replicate 1; for Tg_72h_%Growth_Rep2: replicate 2
# [4] = T. gondii, parasite screen at 2 μg/mL
# [5] = T. gondii RH, library screen at 2 μg/mL
Structure (SMILES),Pf_72h_%Growth_Rep1 ([1]; parasite screen at 2 μg/mL),Pf_72h_%Growth_Rep2 ([1]; parasite screen at 2 μg/mL),Pf_120h_%Growth_Rep1 ([2]; parasite screen at 2 μg/mL),Pf_120h_%Growth_Rep2 ([2]; parasite screen at 2 μg/mL),"Tg_72h_%Growth_Rep1 [3, 4]","Tg_72h_%Growth_Rep2 [3, 4]",Pf_72h_%Growth_Rep1 ([1]; library screen at 2 μg/mL),Pf_72h_%Growth_Rep2 ([1]; library screen at 2 μg/mL),Pf_120h_%Growth_Rep1 ([2]; library screen at 2 μg/mL),Pf_120h_%Growth_Rep2 ([2]; library screen at 2 μg/mL),"Tg_72h_%Growth_Rep1 [3, 5]","Tg_72h_%Growth_Rep2 [3, 5]"
CC1=CCC2CC(CC3(CCC(C)C(C)O3)O2)OC(=O)C2C=C(C)C(O)C3OCC(=CC=CC(C)C1)C23O (stereo not drawn) [BIA-M1051],47.24%,1.70%,10.36%,24.90%,114.92%,98.32%,,,,,,
CCC1OC2(CCC1C)CC1CC(CC=C(C)CC(C)C=CC=C3COC4C(O)C(C)=CC(C(=O)O1)C34O)O2 (stereo not drawn) [BIA-M1052],59.66%,59.04%,32.48%,50.00%,117.80%,80.70%,,,,,,
CC[C@H]1C[C@@H]2CC[C@@H](O2)[C@@H](C)C(=O)O[C@H](C)C[C@H]2CC[C@H](O2)[C@H](C)C(=O)O[C@@H](C)C[C@@H]2CC[C@@H](O2)[C@@H](C)C(=O)O[C@H](C)C[C@H]2CC[C@H](O2)[C@H](C)C(=O)O1 [BIA-M1055],7.23%,6.66%,15.60%,21.38%,3.56%,1.37%,,,,,,
COc1c(-c2ccccc2)c2ccccc2[nH]c1=O [BIA-M1149],89.32%,119.11%,106.21%,123.66%,136.04%,92.92%,,,,,,
CO[C@@]12[C@H](COC(N)=O)C3=C(C(=O)C(C)=C(N)C3=O)N1C[C@@H]1N[C@@H]12 [BIA-M1183],82.66%,112.82%,92.29%,100.91%,127.95%,82.68%,,,,,,
COc1c(C)c2c(c(O)c1C/C=C(\C)CCC(=O)O)C(=O)OC2 [BIA-M1207],27.32%,1.32%,16.21%,22.24%,1.75%,2.10%,,,,,,
CC[C@H](C)C(=O)O[C@H]1CCC=C2C=C[C@H](C)[C@H](CC[C@@H]3C[C@@H](O)CC(=O)O3)[C@H]21 [BIA-M1209],86.39%,121.47%,88.69%,112.58%,113.16%,83.90%,,,,,,
COc1cccc2oc3c4c(cc(OC)c3c(=O)c12)O[C@H]1OC=C[C@@H]41 [BIA-M1214],80.14%,43.63%,94.17%,84.03%,111.85%,93.41%,,,,,,
CCCCCCC(=O)CCCCCC/C=C/C[C@@H](O)[C@H](O)[C@@](N)(CO)C(=O)O [BIA-M1219],77.20%,44.93%,68.80%,36.84%,113.89%,86.95%,,,,,,
O=c1cc([O-])c1=O.[Na+] [BIA-M1269],85.51%,86.48%,98.81%,138.01%,105.46%,100.53%,,,,,,
CON=C1CC2(CC3CC(CC=C(C)CC(C)C=CC=C4COC5C(O)C(C)=CC(C(=O)O3)C45O)O2)OC(C(C)=CC(C)C)C1C (stereo not drawn) [BIA-M1298],17.45%,-0.02%,-5.10%,5.91%,102.84%,95.78%,,,,,,
CCC1(C2OC(C3OC(O)(CO)C(C)CC3C)CC2C)CCC(C2(C)CCC3(CC(O)C(C)C(C(C)C(OC)C(C)C(=O)O)O3)O2)O1 (stereo not drawn) [BIA-M1303],1.29%,-3.52%,3.05%,14.66%,1.84%,2.05%,,,,,,
C=C[C@]1(C)C[C@@H](O)[C@]2(C)[C@H](C)CC[C@]3(CCC(=O)[C@H]32)[C@@H](C)[C@@H]1O [BIA-M1333],79.79%,96.77%,84.29%,105.61%,107.76%,90.41%,,,,,,
CC(=O)c1c(O)cc(O)cc1O [BIA-M1378],82.52%,84.34%,82.35%,134.53%,125.07%,89.41%,,,,,,
CC=CC(C)=CC(C)C(=O)CC(O)CC1CC(=O)NC(=O)C1 (stereo not drawn) [BIA-M1404],71.61%,88.22%,85.21%,78.18%,4.29%,7.26%,,,,,,
C=C1c2c(Cl)ccc(O)c2C(=O)C2=C(O)[C@]3(O)C(=O)C(C(N)=O)=C(O)[C@@H](N(C)C)[C@@H]3[C@@H](O)[C@H]12 [BIA-M1464],,,,,,,76.80%,116.17%,99.01%,114.33%,124.80%,96.61%
C=C1c2cccc(O)c2C(=O)C2=C(O)[C@]3(O)C(=O)C(C(N)=O)=C(O)[C@@H](N(C)C)[C@@H]3[C@@H](O)[C@H]12 [BIA-M1467],83.43%,110.33%,96.98%,103.99%,118.90%,95.35%,,,,,,
CN(C)c1ccc(O)c2c1C[C@H]1C[C@H]3[C@H](N(C)C)C(O)=C(C(N)=O)C(=O)[C@@]3(O)C(O)=C1C2=O.Cl [BIA-M1472],19.15%,16.74%,1.23%,73.75%,5.81%,37.51%,,,,,,
CC1=CCC2CC(CC3(CCC(C)C(C)O3)O2)OC(=O)C2C=C(C)C(=NO)C3OCC(=CC=CC(C)C1)C23O (stereo not drawn) [BIA-M1531],53.63%,28.47%,36.91%,51.60%,75.89%,79.64%,,,,,,
CCC1OC2(CCC1C)CC1CC(CC=C(C)CC(C)C=CC=C3COC4C(=NO)C(C)=CC(C(=O)O1)C34O)O2 (stereo not drawn) [BIA-M1532],26.87%,18.08%,8.04%,16.57%,83.72%,81.98%,,,,,,
Cc1cccc(O)c1C(=O)O [BIA-M1655],90.28%,64.98%,96.92%,97.37%,91.77%,83.98%,,,,,,
Cc1cc(O)c(C)c(O)c1C(=O)O [BIA-M1661],76.46%,83.29%,67.73%,68.25%,153.94%,85.55%,,,,,,
